Experimental data reported in patent US12227501B2, “3-amino-2-[2-(acylamino)pyridin-4-yl]-1,5,6,7-tetrahydro-4h-pyrrolo[3,2-c]pyridin-4-one as CSNK1 inhibitors” (Bayer Aktiengesellschaft, priority 2019, dated 2025).
Read-outs that look alike come from different tables or passages of the source.

Assays:
Type in all cases: biochemical
[1] = molecular target: wild-type Epidermal Growth Factor Receptor (EGFR) (Homo sapiens (Human), UniProt P00533); assay: WT-EGFR Kinase Assay (TR-FRET, 2 mM ATP)
[2] = molecular target: human CSNK1D (Homo sapiens (Human), UniProt P48730); assay: CSNK1D Assay (ADP-Glo, 1 μM ATP); conditions: read-out: CSNK1D IC50 [mol/l] (median)
Procedure: CSNK1 D-inhibitory activity of compounds of the present invention in presence of 1 μM adenosine-tri-phosphate (ATP) was quantified employing the CSNK1D assay as described in the following paragraphs. In essence, the enzyme activity is measured by quantification of the adenosine-di-phosphate (ADP), which is generated as a co-product of the enzyme reaction, via the “ADP-Glo™ Kinase Assay” kit from the company Promega. This detection system works as follows: In a first step the ATP not consumed in the kinase reaction is quantitatively converted to cAMP employing an adenylate cyclase (“ADP-Glo-reagent”), then the adenylate cyclase is stopped and the ADP generated in the kinase reaction converted to ATP which generates in a luciferase-based reaction a glow-luminescence signal (“Kinase Detection Reagent”). Recombinant fusion protein of N-terminal Glutathion-S-Transferase (GST) and full-length human CSNK1D, expressed by baculovirus infected insect cells and purified via Glutathion affinity chromatography, was purchased from Life Technologies (product no. PV3665) and used as enzyme. As substrate for the kinase reaction the biotinylated peptide Btn-Ahx-[…] (C-terminus in amide form) was used which can be purchased e.g. from the company Biosyntan (Berlin-Buch, Germany).
For the assay 50 nl of a 100 fold concentrated solution of the test compound in DMSO was pipetted into a white 1536-well microtiter plate (Greiner Bio-One, Frickenhausen, Germany), 2 μL of a solution of CSNK1D in aqueous assay buffer [50 mM HEPES pH 7.5, 10% (v/v) glycerol, 10 mM MgCl2, 50 mM NaCl, 1 mM dithiothreitol, 0.01% (w/v) bovine serum albumin, 0.01% (v/v) Triton X-100] were added and the mixture was incubated for 15 min at 22° C. to allow pre-binding of the test compounds to the enzyme before the start of the kinase reaction. […] The concentration of CSNK1 D was adjusted depending of the activity of the enzyme lot and was chosen appropriate to have the assay in the linear range, a typical concentration is about 0.5 ng/μL. The reaction was stopped by the addition of 2.5 μL of “ADP-Glo-reagent” (1:1.5 fold diluted with water) and the resulting mixture was incubated at 22° C. for 1 h to convert the ATP not consumed in the kinase reaction completely […]. Subsequently 2.5 μL of the “kinase detection reagent” (1.2 fold more concentrated than recommended by the producer) were added, the resulting mixture was incubated at 22° C. for 1 h and then the luminescence measured with a suitable measurement instrument (e.g. Viewlux™ from Perkin-Elmer). The amount of emitted light was taken as a measure for the amount of ADP generated and thereby for the activity of the CSNK1D.

[3] = molecular target: T1, human CSNK1A1 (Homo sapiens (Human), UniProt P48729); assay: CSNK1A1 High ATP Assay (ADP-Glo, 1 mM ATP); conditions: read-out: CSNK1A1 high ATP assay IC50 [mol/l] (median)
Procedure: CSNK1A1-inhibitory activity of compounds of the present invention in presence of 1 mM adenosine-tri-phosphate (ATP) was quantified employing the CSNK1A1-high-ATP-assay as described in the following paragraphs. In essence, the enzyme activity is measured by quantification of the adenosine-di-phosphate (ADP), which is generated as a co-product of the enzyme reaction, via the “ADP-Glo™ Kinase Assay” kit from the company Promega. This detection system works as follows: In a first step the ATP not consumed in the kinase reaction is quantitatively converted to cAMP employing an adenylate cyclase (“ADP-Glo-reagent”), then the adenylate cyclase is stopped and the ADP generated in the kinase reaction converted to ATP which generates in a luciferase-based reaction a glow-luminescence signal (“Kinase Detection Reagent”).
Recombinant fusion protein of N-terminal Glutathion-S-Transferase (GST) and full-length human CSNK1A1, expressed by baculovirus infected insect cells and purified via Glutathion affinity chromatography, was purchased from Life Technologies (product no. PV4174) and used as enzyme. As substrate for the kinase reaction the biotinylated peptide biotin-Ahx-KRRRAL-pS-VASLPGL (C-terminus in amide form) was used which can be purchased e.g. from the company Biosyntan (Berlin-Buch, Germany).
For the assay 50 nl of a 100 fold concentrated solution of the test compound in DMSO was pipetted into a white low volume 384-well microtiter plate (Greiner Bio-One, Frickenhausen, Germany), 2 μL of a solution of CSNK1A1 in aqueous assay buffer [50 mM HEPES pH 7.5, 10% (v/v) glycerol, 10 mM MgCl2, 50 mM NaCl, 1 mM dithiothreitol, 0.01% (w/v) bovine serum albumin, 0.01% (v/v) Triton X-100] were added and the mixture was incubated for 15 min at 22° C. to allow pre-binding of the test compounds to the enzyme before the start of the kinase reaction. […] The concentration of CSNK1A1 was adjusted depending of the activity of the enzyme lot and was chosen appropriate to have the assay in the linear range, a typical concentration is about 0.4 ng/μL. The reaction was stopped by the addition of 2.5 μL of “ADP-Glo-reagent” (1:1.5 fold diluted with water) and the resulting mixture was incubated at 22° C. for 1 h to convert the ATP not consumed in the kinase reaction completely […]. Subsequently 2.5 μL of the “kinase detection reagent” (1.2 fold more concentrated than recommended by the producer) were added, the resulting mixture was incubated at 22° C. for 1 h and then the luminescence measured with a suitable measurement instrument (e.g. Viewlux™ from Perkin-Elmer). The amount of emitted light was taken as a measure for the amount of ADP generated and thereby for the activity of the CSNK1A1.

[4] = molecular target: T1, human CSNK1A1; assay: CSNK1A1 Assay 2 (ADP-Glo, 1 μM ATP); conditions: substrate biotin-Ahx-KRRRAL-pS-VASLPGL, read-out: CSNK1A1 Assay 2 IC50 [mol/l] (median)
Procedure: CSNK1A1-inhibitory activity of compounds of the present invention in presence of 1 μM adenosine-tri-phosphate (ATP) was quantified employing the CSNK1A1 assay as described in the following paragraphs. In essence, the enzyme activity is measured by quantification of the adenosine-di-phosphate (ADP), which is generated as a co-product of the enzyme reaction, via the “ADP-Glo™ Kinase Assay” kit from the company Promega. This detection system works as follows: In a first step the ATP not consumed in the kinase reaction is quantitatively converted to cAMP employing an adenylate cyclase (“ADP-Glo-reagent”), then the adenylate cyclase is stopped and the ADP generated in the kinase reaction converted to ATP which generates in a luciferase-based reaction a glow-luminescence signal (“Kinase Detection Reagent”). Recombinant fusion protein of N-terminal Glutathion-S-Transferase (GST) and full-length human CSNK1A1, expressed by baculovirus infected insect cells and purified via Glutathion affinity chromatography, was purchased from Life Technologies (product no. PV4174) and used as enzyme. As substrate for the kinase reaction the biotinylated peptide biotin-Ahx-KRRRAL-pS-VASLPGL (C-terminus in amide form) was used which can be purchased e.g. from the company Biosyntan (Berlin-Buch, Germany).
For the assay 50 nl of a 100 fold concentrated solution of the test compound in DMSO was pipetted into a white 1536-well microtiter plate (Greiner Bio-One, Frickenhausen, Germany), 2 μL of a solution of CSNK1A1 in aqueous assay buffer [50 mM HEPES pH 7.5, 10% (v/v) glycerol, 10 mM MgCl2, 50 mM NaCl, 1 mM dithiothreitol, 0.01% (w/v) bovine serum albumin, 0.01% (v/v) Triton X-100] were added and the mixture was incubated for 15 min at 22° C. to allow pre-binding of the test compounds to the enzyme before the start of the kinase reaction. […] The concentration of CSNK1A1 was adjusted depending of the activity of the enzyme lot and was chosen appropriate to have the assay in the linear range, a typical concentrations are about 0.0375 ng/μL. The reaction was stopped by the addition of 2.5 μL of “ADP-Glo-reagent” (1:1.5 fold diluted with water) and the resulting mixture was incubated at 22° C. for 1 h to convert the ATP not consumed in the kinase reaction completely […]. Subsequently 2.5 μL of the “kinase detection reagent” (1.2 fold more concentrated than recommended by the producer) were added, the resulting mixture was incubated at 22° C. for 1 h and then the luminescence measured with a suitable measurement instrument (e.g. Viewlux™ from Perkin-Elmer). The amount of emitted light was taken as a measure for the amount of ADP generated and thereby for the activity of the CSNK1A1.

[5] = read-out: EGFR Wildtyp- 2 mM ATP IC50 [mol/l] (median)
[6] = EGFR Wildtyp- 2 mM ATP IC50 [mol/l] (median)

Sequence of wild-type Epidermal Growth Factor Receptor (EGFR) (P00533 669-1210): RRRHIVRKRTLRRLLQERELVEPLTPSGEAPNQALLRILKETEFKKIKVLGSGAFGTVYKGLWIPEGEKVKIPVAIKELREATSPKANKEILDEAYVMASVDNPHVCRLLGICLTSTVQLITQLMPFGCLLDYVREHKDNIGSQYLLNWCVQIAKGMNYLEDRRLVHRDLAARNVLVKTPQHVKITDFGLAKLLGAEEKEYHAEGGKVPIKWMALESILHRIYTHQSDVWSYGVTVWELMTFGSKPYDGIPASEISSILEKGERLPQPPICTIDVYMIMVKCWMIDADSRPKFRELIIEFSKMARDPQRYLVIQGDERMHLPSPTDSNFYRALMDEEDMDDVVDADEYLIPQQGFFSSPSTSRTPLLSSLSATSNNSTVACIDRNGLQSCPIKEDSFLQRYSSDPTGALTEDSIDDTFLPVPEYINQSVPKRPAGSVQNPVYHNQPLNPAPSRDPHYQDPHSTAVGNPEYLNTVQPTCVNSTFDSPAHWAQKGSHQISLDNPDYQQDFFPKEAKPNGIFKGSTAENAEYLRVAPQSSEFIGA
T1 sequence (P48729 whole entry): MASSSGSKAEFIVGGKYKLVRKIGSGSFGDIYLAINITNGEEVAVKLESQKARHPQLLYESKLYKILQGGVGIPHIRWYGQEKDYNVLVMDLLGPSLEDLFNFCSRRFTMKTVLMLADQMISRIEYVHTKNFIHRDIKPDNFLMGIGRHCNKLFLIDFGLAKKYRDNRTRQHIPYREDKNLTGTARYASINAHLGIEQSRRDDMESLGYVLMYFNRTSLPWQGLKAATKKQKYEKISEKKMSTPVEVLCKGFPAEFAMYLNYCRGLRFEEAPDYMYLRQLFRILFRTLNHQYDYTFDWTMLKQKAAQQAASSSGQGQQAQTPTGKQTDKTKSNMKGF
Sequence of human CSNK1D (P48730 whole entry): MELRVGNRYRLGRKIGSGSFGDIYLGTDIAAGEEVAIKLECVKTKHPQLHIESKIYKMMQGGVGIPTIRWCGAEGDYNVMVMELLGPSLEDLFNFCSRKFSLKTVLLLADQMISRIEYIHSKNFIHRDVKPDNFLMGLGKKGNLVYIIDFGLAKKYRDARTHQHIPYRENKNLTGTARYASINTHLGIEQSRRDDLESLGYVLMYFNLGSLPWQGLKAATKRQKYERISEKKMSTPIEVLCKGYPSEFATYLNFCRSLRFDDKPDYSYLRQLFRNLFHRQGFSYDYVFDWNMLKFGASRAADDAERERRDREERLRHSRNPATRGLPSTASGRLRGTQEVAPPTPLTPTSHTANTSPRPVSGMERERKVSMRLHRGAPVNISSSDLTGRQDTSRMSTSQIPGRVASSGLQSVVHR

Row | Compound | IC50 [1, 5] [nM] | IC50 [2] [nM] | IC50 [3] [nM] | IC50 [4] [nM] | IC50 [1, 6] [nM]
1 | CC1(C)Cc2[nH]c(-c3ccnc(NC(=O)C(CC(F)F)c4ccc(F)cc4)c3)c(Nc3cccc(F)c3)c2C(=O)N1 (single isomer, unassigned; enantiomer 2) [Example 121, 4,4-difluoro-N-{4-[3-(3-fluoroanilino)-6,6-dimethyl-4-oxo-4,5,6,7-tetrahydro-1H-pyrrolo[3,2-c]pyridin-2-yl]pyridin-2-yl}-2-(4-fluorophenyl)butanamide (Enantiomer 2)] | > 20000 | 63.5 | 10200 | 70.1 | 
2 | Cc1ccccc1Nc1c(-c2ccnc(NC(=O)C(CC(F)F)c3ccc(F)cc3)c2)[nH]c2c1C(=O)NC1(CCC1)C2 (single isomer, unassigned; enantiomer 2) [Example 145, (+)-4,4-difluoro-2-(4-fluorophenyl)-N-{4-[3′-(2-methylanilino)-4′-oxo-1′,4′,5′,7′-tetrahydrospiro[cyclobutane-1,6′-pyrrolo[3,2-c]pyridin]-2′-yl]pyridin-2-yl}butanamide-(Enantiomer 2)] | > 20000 | 8.21 | 14.8 | 10.7 | 
3 | CC(C(=O)Nc1cc(-c2[nH]c3c(c2Nc2ccccc2)C(=O)N(C)CC3)ccn1)c1ccc(Cl)cc1 (single isomer, unassigned; (+)) [Example 81, (+)-N-[4-(3-anilino-5-methyl-4-oxo-4,5,6,7-tetrahydro-1H-pyrrolo[3,2-c]pyridin-2-yl)pyridin-2-yl]-2-(4-chlorophenyl)propanamide] | > 20000 | 8.47 | 71.4 | 4.33 | 
4 | Cc1ccccc1Nc1c(-c2ccnc(NC(=O)C(CC(F)F)c3ccc(F)cc3)c2)[nH]c2c1C(=O)NC(C)(C)C2 (single isomer, unassigned; enantiomer 1) [Example 136, N-{4-[6,6-dimethyl-3-(2-methylanilino)-4-oxo-4,5,6,7-tetrahydro-1H-pyrrolo[3,2-c]pyridin-2-yl]pyridin-2-yl}-4,4-difluoro-2-(4-fluorophenyl)butanamide (Enantiomer 1)] |  | 45.3 | 45.6 | 13.7 | > 20000
5 | CC(C)(O)CN1CCc2[nH]c(-c3ccnc(NC(=O)Cc4ccc(F)cc4)c3)c(Nc3ccccc3)c2C1=O [Example 23, N-{4-[3-anilino-5-(2-hydroxy-2-methylpropyl)-4-oxo-4,5,6,7-tetrahydro-1H-pyrrolo[3,2-c]pyridin-2-yl]pyridin-2-yl}-2-(4-fluorophenyl)acetamide] | 7280 | 36.8 | 2620 | 26.7 | 
6 | CN(C)CCCC(C(=O)Nc1cc(-c2[nH]c3c(c2Nc2ccccc2)C(=O)N(C)CC3)ccn1)c1ccccc1 (single isomer, unassigned; (-)) [Example 59, (−)-N-[4-(3-anilino-5-methyl-4-oxo-4,5,6,7-tetrahydro-1H-pyrrolo[3,2-c]pyridin-2-yl)pyridin-2-yl]-5-(dimethylamino)-2-phenylpentanamide] |  | 86.2 | 7300 | 94.3 | 16300
7 | CC(C(=O)Nc1cc(-c2[nH]c3c(c2Nc2ccccc2)C(=O)N(C)CC3)ccn1)c1ccncc1 (single isomer, unassigned) [Example 74, N-[4-(3-anilino-5-methyl-4-oxo-4,5,6,7-tetrahydro-1H-pyrrolo[3,2-c]pyridin-2-yl)pyridin-2-yl]-2-(pyridin-4-yl)propanamide] |  | 55.1 | 599 | 33.9 | > 20000
8 | CN1C(=O)c2c([nH]c(-c3ccnc(NC(=O)C(CC(F)F)c4ccc(F)cc4)c3)c2Nc2ccccc2)CC12CCC2 (racemic) [Example 160, N-[4-(3′-anilino-5′-methyl-4′-oxo-1′,4′,5′,7′-tetrahydrospiro[cyclobutane-1,6′-pyrrolo[3,2-c]pyridin]-2′-yl)pyridin-2-yl]-4,4-difluoro-2-(4-fluorophenyl)butanamide (Racemate)] |  | 15.8 | 27.2 | 13.3 | > 20000
